Data published in article PMC10504751, “Chalcone/1,3,4-Oxadiazole/Benzimidazole hybrids as novel anti-proliferative agents inducing apoptosis and inhibiting EGFR & BRAFV^600E” (BMC Chemistry, 2023).
Like-named read-outs stand apart in the source and are kept apart here.

Key:
[1] = MTT cell viability assay in normal cells; assay type: cell-based; settings: human, MCF-10A normal mammary epithelial cells
Description: To check the safety of prepared compounds and evaluate their selectivity towards tumor cells over normal ones, the toxicity of compounds 7a-x were evaluated by 3-(4,5-Dimethylthiazole-2-yl)-2,5-diphenyltetrazol (MTT) assay on the normal human mammary epithelial cell line (MCF-10 A). The human mammary epithelial cell lines were incubated for four days with a concentration of 50 µM of compounds 7a-x.
MTT assay was done to determine the effect of the synthesized compounds on the viability of mammary epithelial cells (MCF-10 A). Compounds 7a-x were incubated with MCF-10 A cells for 4 days at 50 µM concentration, and the viability of cells was determined. See Appendix A.
MTT assay was carried out to study the effect of compounds on mammary epithelial cells (MCF-10A).^7, ^8 The medium in which cells were propagated contained Dulbecco's modified Eagle's medium (DMEM)/ Ham's F-12 medium (1:1) supplemented with epidermal growth factor (20 ng/mL), hydrocortisone (500 ng/mL), insulin (10 μg/mL), 2 mM glutamine and 10% foetal calf serum. After every 2-3 days, the cells were passaged using trypsin ethylenediamine tetra acetic acid (EDTA). The cells were seeded at a density of 10^4 cells mL^-1 in flat-bottomed culture plates containing 96 wells each. After 24 h, medium was removed from the plates and the compounds in (in 0.1% DMSO) were added (in 200 μL medium to yield a final concentration of 0.1% v/v) to the wells of plates. A single compound was designated with four wells followed by incubation of plates for 96h at 37°C. After incubation, medium was removed completely from the plates followed by addition of MTT (0.4 mg/mL in medium) to each well and subsequent incubation of plates for 3h. MTT (along with the medium) was removed and DMSO (150μL) was added to each well of the culture plates, followed by vortexing and subsequent measurement of absorbance (at 540 nm) using microplate reader.

HCC-2998 = assay: NCI one-dose SRB anti-proliferative screen; assay type: cell-based; settings: Homo sapiens, read-out: Cell growth inhibition %
Description: (§1) The twenty-four synthesized compounds were submitted to the National Cancer Institute (NCI), USA. Eighteen hybrids 7a-h, 7k-r, 7u, and 7v were selected by NCI for one-dose assessment of their anti-proliferative activities at 10 µM dose by Sulforhodamine B colorimetric assay. The assessment was performed in 60 cell lines derived from nine tumor subpanels, comprising lung, leukemia, melanoma, colon, renal, CNS, prostate, breast, and ovarian cancer cell lines.
(§2) The methodology of the NCI anti-proliferative screening has been described in details elsewhere (http://www.dtp.nci.nih.gov).

COLO 205 = assay: NCI one-dose SRB anti-proliferative screen; assay type: cell-based; settings: Homo sapiens, read-out: Cell growth inhibition %
Description: as §1, §2

NCI-H522 = assay: NCI one-dose SRB anti-proliferative screen; assay type: cell-based; settings: Homo sapiens, read-out: Cell growth inhibition %
Description: as §1, §2

Panc-1 = assay: Propidium iodide anti-proliferative assay; assay type: cell-based; settings: Homo sapiens, 48 h incubation, read-out: IC50 ± SEM Panc-1
Description: (§3) The propidium iodide (PI) tests^31, 32 were further used for assessment of the IC50 of all synthesized compounds and compared to Doxorubicin as a positive control against four cancer cell lines; pancreatic cancer cell line (Panc-1), epithelial line cancer cell (A-549), breast cancer cell line (MCF-7), and colon cancer cell line (HT-29).
(§4) Using the propidium iodide fluorescence assay with doxorubicin as the reference drug, IC50 of the 24 compounds 7a-x, was carried out according to a previously reported procedure^31, 32 against a panel of four human cancer cell lines; epithelial cancer cell line (A-549), breast cancer cell line (MCF-7), colon cancer cell line (HT-29) and pancreas cancer cell line (Panc-1). Compounds 7a-x were incubated with cancer cells for 2 days at different concentrations. See Appendix A.
(§5) To explore the antiproliferative potential of compounds propidium iodide fluorescence assay was performed using different cell lines (melanoma cancer cell line LOX-IMVI, pancreatic cancer cell line (Panc-1), epithelial line cancer cell (A-549), breast cancer cell line (MCF-7), and colon cancer cell line (HT-29). To calculate the total nuclear DNA, a fluorescent dye (propidium iodide, PI) is used which can attach to the DNA,^9,^10 thus offering a quick and precise technique. PI cannot pass through the cell membrane and its signal intensity can be considered as directly proportional to the quantity of cellular DNA. Cells whose cell membranes are damaged or have changed permeability are counted as dead ones. The assay was performed by seeding the cells of different cancer cell lines at a density of 3000-7500 cells/well (in 200µl medium) in culture plates followed by incubation for 24h at 37 °C in humidified 5% CO2/95% air atmospheric conditions. The medium was removed; the compounds were added to the plates at 10 µM concentrations (in 0.1% DMSO) in triplicates, followed by incubation for 48 h. DMSO (0.1%) was used as control. After incubation, medium was removed followed by the addition of PI (25 µl, 50µg/mL in water/medium) to each well of the plates. At -80 °C, the plates were allowed to freeze for 24 h, followed by thawing at 25 °C. A fluorometer (Polar-Star BMG Tech) was used to record the readings at excitation and emission wavelengths of 530 and 620 nm for each well. The percentage cytotoxicity of compounds was calculated using the following formula:
(§6) Where ATC= Absorbance of treated cells and AC= Absorbance of control. […]

HT-29 = assay: Propidium iodide anti-proliferative assay; assay type: cell-based; settings: Homo sapiens, 48 h incubation, read-out: IC50 ± SEM HT-29
Description: as §3, §4, §5, §6

MCF-7 = assay: Propidium iodide anti-proliferative assay; assay type: cell-based; settings: Homo sapiens, MCF7; 48 h incubation; read-out: IC50 ± SEM MCF-7
Description: as §3, §4, §5, §6

A-549 = assay: Propidium iodide anti-proliferative assay; assay type: cell-based; settings: Homo sapiens, A549; 48 h incubation; read-out: IC50 ± SEM A-549
Description: as §3, §4, §5, §6

HCT-116 = assay: NCI one-dose SRB anti-proliferative screen; assay type: cell-based, human; settings: for inhibition at 10 µM: Homo sapiens, read-out: Cell growth inhibition %
Description: as §1, §2

K-562 = assay: NCI one-dose SRB anti-proliferative screen; assay type: cell-based, human; settings: for inhibition at 10 µM: Homo sapiens, K562, read-out: Cell growth inhibition %
Description: as §1, §2

T-47D = assay: NCI one-dose SRB anti-proliferative screen; assay type: cell-based, human; settings: for inhibition at 10 µM: Homo sapiens, T47D, read-out: Cell growth inhibition %
Description: as §1, §2

MOLT-4 = assay: NCI one-dose SRB anti-proliferative screen; assay type: cell-based, human; settings: for inhibition at 10 µM: Homo sapiens, read-out: Cell growth inhibition %
Description: as §1, §2

RXF 393 = assay: NCI one-dose SRB anti-proliferative screen; assay type: cell-based, human; settings: Homo sapiens, read-out: Cell growth inhibition %
Description: as §1, §2

[2] = HCC-2998, Colon cancer, NCI one dose
[3] = COLO 205, Colon cancer, NCI one dose
[4] = NCI-H522, Non-Small Cell Lung Cancer, NCI one dose
[5] = HCT-116, Colon cancer, NCI one dose
[6] = T-47D, Breast cancer, NCI one dose
[7] = RXF 393, Renal cancer, NCI one dose

Structure (SMILES) | viability at 96 h, 50 µM [1] [%] | melting point [°C] | inhibition at 10 µM (HCC-2998; [2]) [%] | inhibition at 10 µM (COLO 205; [3]) [%] | inhibition at 10 µM (NCI-H522; [4]) [%] | IC50 (Panc-1) [nM] | IC50 (HT-29) [nM] | IC50 (MCF-7) [nM] | IC50 (A-549) [nM] | inhibition at 10 µM (HCT-116; [5]) [%] | inhibition at 10 µM (K-562; K-562, Leukemia, NCI one dose) [%] | inhibition at 10 µM (T-47D; [6]) [%] | inhibition at 10 µM (MOLT-4; MOLT-4, Leukemia, NCI one dose) [%] | inhibition at 10 µM (RXF 393; [7]) [%] | further results
O=C(CSc1nnc(-c2ccc3[nH]c(-c4ccccc4)nc3c2)o1)Nc1ccc(C(=O)/C=C/c2ccccc2)cc1 [Compound 7a, 2-{5-[2-Phenyl-1 H-benzo[d]imidazol-5-yl]-1,3,4-oxadiazol-2-ylthio}-N-{4-[(E)-3-phenylacryloyl]phenyl}acetamide] | 91 | 273 to 275 | 0 | 0 | 6.57 | 10400 ± 1300 | 11200 ± 1400 | 9200 ± 1100 | 9900 ± 1100 | 3.03 | 0 | 1.45 | 6.84 | 0 | 
O=C(CSc1nnc(-c2ccc3[nH]c(-c4ccccc4)nc3c2)o1)Nc1ccc(C(=O)/C=C/c2ccc(Cl)cc2)cc1 [Compound 7b, 2-{5-[2-Phenyl-1 H-benzo[d]imidazol-5-yl]-1,3,4-oxadiazol-2-ylthio}-N-{4-[(E)-3-(4-chlorophenyl)acryloyl]phenyl}acetamide] | 88 | 263 to 264 | 0 | 0 | 11.6 | 8400 ± 1000 | 9100 ± 1100 | 7900 ± 800 | 8200 ± 900 | 8.66 | 0 | 12.3 | 6.55 | 0 | 
COc1ccc(-c2nc3cc(-c4nnc(SCC(=O)Nc5ccc(C(=O)/C=C/c6ccccc6)cc5)o4)ccc3[nH]2)cc1 [Compound 7k, 2-{5-[2-(4-Methoxyphenyl)-1 H-benzo[d]imidazol-5-yl]-1,3,4-oxadiazol-2-ylthio}-N-{4-[(E)-3-phenylacryloyl]phenyl}acetamide] | 91 |  | 0 | 0 | 17.3 | 1300 ± 200 | 1400 ± 200 | 950 ± 80 | 1200 ± 200 | 41.3 | 44.6 | 58 | 53 | 37.9 | Growth Percent (HCT-116; HCT-116 (Colon Cancer), 10 µM one dose): 58.69%; Growth Percent (K-562; K-562 (Leukemia), 10 µM one dose): 55%; Growth Percent (T-47D; T-47D (Breast Cancer), 10 µM one dose): 42.05%; Growth Percent (MOLT-4; MOLT-4 (Leukemia), 10 µM one dose): 47%
COc1ccc(-c2nc3cc(-c4nnc(SCC(=O)Nc5ccc(C(=O)/C=C/c6ccc(Cl)cc6)cc5)o4)ccc3[nH]2)cc1 [Compound 7l, 2-{5-[2-(4-Methoxyphenyl)-1 H-benzo[d]imidazol-5-yl]-1,3,4-oxadiazol-2-ylthio}-N-{4-[(E)-3-(4-chlorophenyl)acryloyl]phenyl}acetamide] | 89 |  | 0 | 0 | 4.71 | 1500 ± 300 | 1650 ± 300 | 1100 ± 100 | 1450 ± 300 | 0 | 6.12 | 7.23 | 11.7 | 1.82 | 
COc1ccc(/C=C/C(=O)c2ccc(NC(=O)CSc3nnc(-c4ccc5[nH]c(-c6ccc(OC)cc6)nc5c4)o3)cc2)cc1 [Compound 7m, 2-{5-[2-(4-Methoxyphenyl)-1 H-benzo[d]imidazol-5-yl]-1,3,4-oxadiazol-2-ylthio}-N-{4-[(E)-3-(4-methoxyphenyl)acryloyl]phenyl}acetamide] | 94 |  | 0 | 0 | 22.8 | 1500 ± 200 | 1850 ± 400 | 1200 ± 80 | 1400 ± 500 | 0 | 28.7 | 31.1 | 36.9 | 0 | 
COc1cc(-c2nc3cc(-c4nnc(SCC(=O)Nc5ccc(C(=O)/C=C/c6ccc(Cl)cc6)cc5)o4)ccc3[nH]2)cc(OC)c1OC [Compound 7v, 2-{5-[2-(3,4,5-Trimethoxyphenyl)-1 H-benzo[d]imidazol-5-yl]-1,3,4-oxadiazol-2-ylthio}-N-{4-[(E)-3-(4-chlorophenyl)acryloyl]phenyl}acetamide] | 87 |  |  |  |  | 2600 ± 200 | 2900 ± 500 | 2200 ± 80 | 2450 ± 500 |  |  |  |  |  | inhibition at 10 µM (HCC-2998; HCC-2998 (Colon Cancer), NCI one dose 10 µM): 0%; inhibition at 10 µM (COLO 205; COLO 205 (Colon Cancer), NCI one dose 10 µM): 0%; inhibition at 10 µM (NCI-H522; NCI-H522 (Non-Small Cell Lung Cancer), NCI one dose 10 µM): 7.4%; inhibition at 10 µM (HCT-116; HCT-116 (Colon Cancer), NCI one dose 10 µM): 18.5%; inhibition at 10 µM (K-562; K-562 (Leukemia), NCI one dose 10 µM): 16.2%; inhibition at 10 µM (T-47D; T-47D (Breast Cancer), NCI one dose 10 µM): 19.6%; inhibition at 10 µM (MOLT-4; MOLT-4 (Leukemia), NCI one dose 10 µM): 20.6%; inhibition at 10 µM (RXF 393; RXF 393 (Renal Cancer), NCI one dose 10 µM): 0%
